Where two headings read alike, the source gives them in different places.
Columns and labels:
P. falciparum 3D7 = test: P. falciparum growth inhibition assay (PicoGreen, 72 h), strain 3D7; type: cell-based, Plasmodium falciparum
Description: (§1) P. falciparum strains were obtained through the MR4 as part of the BEI Resources Repository, NIAID NIH (www.mr4.org): Plasmodium falciparum 3D7 (wild-type, WT), Plasmodium falciparum K1 (MRA-159; chloroquine and sulfadoxine-pyrimethamine resistant) deposited by D E Kyle, and Plasmodium falciparum IPC 5202 Battambang Cambodia 2011 (MRA-1240; chloroquine and artemisinin resistant) deposited by Didier Menard at the Institut Pasteur du Cambodge. The P. falciparum mutant containing increased levels of MEP pathway metabolites had1 (MRA-1257), and its compliment had1+PfHad1-GFP (MRA-1258), were generated in strain 3D7 as reported (BEI Resources; Guggisburg 2014). Parasites were cultured in a 2% suspension of human erythrocytes and RPMI 1640 (Sigma) medium supplemented with 27 mM sodium bicarbonate, 11 mM glucose, 5 mM HEPES, 1 mM sodium pyruvate, 0.37 mM hypoxanthine, 0.01 mM thymidine, 10 μg/ml gentamicin, and 0.5% albumax (Gibco) at 37° C., 5% O2/5% CO2/90% N2 atmosphere as previously described (Zhang 2011).
(§2) Asynchronous P. falciparum cultures were diluted to 1% parasitemia and were treated with FR900098 analogs at concentrations ranging from 0.25 ng/ml-100 μg/ml. Growth inhibition assays were performed in opaque 96-well plates at 100 μl culture volume. After 3 days, parasite growth was quantified by measuring DNA content using PicoGreen (Life Technologies), as described. Fluorescence was measured on a FLUOstar Omega microplate reader (BMG Labtech) at 485 nm excitation and 528 nm emission. Half maximal inhibitory concentration (IC50) values were calculated by nonlinear regression analysis using GraphPad Prism software. For isopentenyl pyrophosphate (IPP) (Echelon) rescue experiments, 250 μM IPP was added to the appropriate wells for the duration of the experiment.

P. falciparum 7G8 = test: P. falciparum growth inhibition assay, strain 7G8; type: cell-based, Plasmodium falciparum; details: P. falciparum 7G8 (quinine, chloroquine, and pyrimethamine resistant), 72 h
Experimental: as §2

P. falciparum D6 = test: P. falciparum growth inhibition assay, strain D6; type: cell-based, Plasmodium falciparum; details: P. falciparum D6 (mefloquine resistant), 72 h
Experimental: as §2

P. falciparum D10 = test: P. falciparum growth inhibition assay, strain D10; type: cell-based, Plasmodium falciparum; details: P. falciparum D10 (mefloquine resistant), 72 h
Experimental: as §2

P. falciparum K1 = test: P. falciparum growth inhibition assay, strain K1; type: cell-based, Plasmodium falciparum; details: P. falciparum K1 (chloroquine and sulfadoxine-pyrimethamine resistant), 72 h
Description: as §1, with “Parasites were cultured in a 2% suspension of human erythrocytes and RPMI 1640 (Sigma) medium supplemented with 27 mM sodium bicarbonate, 11 mM glucose, 5 mM HEPES, 1 mM sodium pyruvate, 0.37 mM hypoxanthine, 0.01 mM thymidine, 10 μg/ml gentamicin, and 0.5% albumax (Gibco) at 37° C., 5% O2/5% CO2/90% N2 atmosphere as previously described (Zhang 2011).” left out
as §2, with “Growth inhibition assays were performed in opaque 96-well plates at 100 μl culture volume.” left out, “For isopentenyl pyrophosphate (IPP) (Echelon) rescue experiments, 250 μM IPP was added to the appropriate wells for the duration of the experiment.” left out

P. falciparum Battambang = test: P. falciparum growth inhibition assay, strain Battambang; type: cell-based, Plasmodium falciparum; details: P. falciparum Battambang (chloroquine and artemisinin resistant), 72 h
Description: as §1, with “Parasites were cultured in a 2% suspension of human erythrocytes and RPMI 1640 (Sigma) medium supplemented with 27 mM sodium bicarbonate, 11 mM glucose, 5 mM HEPES, 1 mM sodium pyruvate, 0.37 mM hypoxanthine, 0.01 mM thymidine, 10 μg/ml gentamicin, and 0.5% albumax (Gibco) at 37° C., 5% O2/5% CO2/90% N2 atmosphere as previously described (Zhang 2011).” left out
as §2, with “Growth inhibition assays were performed in opaque 96-well plates at 100 μl culture volume.” left out, “For isopentenyl pyrophosphate (IPP) (Echelon) rescue experiments, 250 μM IPP was added to the appropriate wells for the duration of the experiment.” left out

[1] = test system: P. falciparum had1 (PfHad1 loss-of-function strain); test: microbe, parasite or virus in culture; type: cell-based, Plasmodium falciparum
Description: as §1, §2

P. falciparum strain 3D7 = test: IPP rescue of growth inhibition; type: cell-based, Plasmodium falciparum; details: 250 μM IPP; RCB-185 1.2 nM-590.5 nM
Experimental: as §2

[2] = cited from earlier work
[3] = mouse, oral administration; cited from earlier work
[4] = rat, oral administration; cited from earlier work
P. falciparum = details: cited from earlier work
[5] = test system: P. falciparum had1+HAD1-GFP; test: P. falciparum growth inhibition assay, complemented strain had1+HAD1-GFP; type: cell-based, Plasmodium falciparum; details: had1 mutant supplied with WT copy of had1, FIG. 3 panel B
Description: as §1, with “Parasites were cultured in a 2% suspension of human erythrocytes and RPMI 1640 (Sigma) medium supplemented with 27 mM sodium bicarbonate, 11 mM glucose, 5 mM HEPES, 1 mM sodium pyruvate, 0.37 mM hypoxanthine, 0.01 mM thymidine, 10 μg/ml gentamicin, and 0.5% albumax (Gibco) at 37° C., 5% O2/5% CO2/90% N2 atmosphere as previously described (Zhang 2011).” left out
as §2, with “Growth inhibition assays were performed in opaque 96-well plates at 100 μl culture volume.” left out, “For isopentenyl pyrophosphate (IPP) (Echelon) rescue experiments, 250 μM IPP was added to the appropriate wells for the duration of the experiment.” left out

[6] = test system: MEP pathway in P. falciparum strain 3D7; test: MEP pathway metabolite levels by LC-MS/MS; type: cell-based, Plasmodium falciparum; details: for reduction in MEcPP levels: 10 h
Experimental: P. falciparum strain 3D7 was cultured at 37° C. in 30 ml volumes in 100 mm tissue culture dishes (Techno Plastic Products) at 4% hematocrit until >8% parasitemia. […] Cultures were then lysed with 5% saponin, the parasite pellets washed with 1× phosphate-buffered saline (PBS), and the pellets stored at −80° C. Samples were extracted via addition of 600 μl of ice-cold extraction solvent [chloroform, methanol, and acetonitrile (2:1:1, v/v/v)] and two liquid nitrogen-cooled 3.2 mm stainless steel beads, followed by homogenization in the Tissue-Lyser II instrument (Qiagen, Valencia, Calif.) at 20 Hz for 5 min in a cold sample rack. Ice-cold water (600 μl) was added, and samples were homogenized for an additional 5 min at 20 Hz. After centrifugation (14,000 rcf at 4° C. for 5 min), the polar upper phase was aspirated and lyophilized. Dried samples were dissolved in 100 μl water and analyzed by LC-MS/MS.
The 4000QTRAP LC-MS/MS system (AB Sciex) was used in multiple-reaction monitoring (MRM) mode using negative ionization. The detailed instrument configuration and compound-dependent parameters for isoprenoid precursors were as previously described (Zhang 2011). LC separation prior to MRM detection was achieved by ion pair reverse-phase chromatography as described previously, with 10 mM tributylammonium acetate (pH 5.1-5.5) used as the ion pair reagent and the following modifications: (1) RP-hydro 100 mm×2.0 mm, 2.5 μm high performance liquid chromatography column (Phenomenex), (2) flow rate of 0.14 ml/min, (3) solvent A of 10 mM tributylammonium acetate in 5% methanol, (4) binary LC gradient (20% solvent B (100% methanol) from 0 to 2.5 min, 30% B for 12.5 min, 80% B for 5 min, and column equilibration at for 5 min), and (5) autosampler injection volume of 20 μl. For DOXP and MEcPP metabolites, one-way ANOVA was used to test for significance (VassarStats). A t-test was used to test for significance between UNT and 1× RCB-185 CDP-ME levels (VassarStats).

[7] = test system: P. falciparum strain NF54 gametocytes; test: Gametocyte assay (flow cytometry); type: cell-based, Plasmodium falciparum; details: 72 h, 5 μM to 0.001 μM
Experimental: The next day, the parasites were resuspended at 10% gametocytemia, and 2% hematocrit.
A 96-well plate was prepared with 2× concentration of RCB-185 ranging 10 μM to 0.002 μM in complete RPMI with 1% DMSO as well as a positive control, 65 nM epoxomicin, and a negative control, 1% DMSO. Percoll purified NF54 strain P. falciparum gametocytes were added to individual wells at 2% hematocrit and 10% parasitemia in a 1:1 dilution, resulting in a final 1% hematocrit and a two-fold dilution of RCB-185 for a final concentration range of 5 μM to 0.001 μM and a final 0.5% DMSO, 32.5 nM epoxomicin. The plate was gassed with 90% N2, 5% O2, 5% CO2 and incubated at 37° C. with compound for 72 h. Following incubation, cells were analyzed using flow cytomtetry as described below.
Cells were incubated at a final 0.1% hematocrit in 50 nM DiIC(1)5 with buffer containing 1.67 mg/ml glucose, 8 mg/mL NaCl, 8 mM Tris-Cl (pH 7.4) and incubated at 37° C. for 20-30 minutes prior to analysis on BD Accuri C6 flow cytometer. Uninfected RBCs and unstained P. falciparum infected RBCs were incubated with MitoProbe DiIC1(5) as controls to determine the threshold for MitoProbe DiIC1(5) (640 nm laser excitation and FL4 emission filter [675/25 nm]) positive, single, and intact cell populations. One-way ANOVA was used to test for significance between the three treatment groups (VassarStats).

P. berghei ANKA = test: Mouse model of malaria, P. berghei asexual blood stages (luciferase); type: in vivo, Swiss Webster mice
Experimental: In vivo testing of RCB-185 against intraerythrocytic P. berghei parasites was performed by the Anti-Infectives Screening Core at NYU School of Medicine. Briefly, groups of 5-7 female Swiss Webster mice weighing 25-30 g were infected via intraperitoneal injection with 10^3 transgenic P. berghei ANKA that express a fusion GFP (mutant 3) and firefly luciferase (LucIAV) fusion under the control of the constitutive eeflaα promoter that is stably integrated into the 230p locus (PbGFP-Luccon). Two days post-infection, mice were treated by intraperitoneal injection with 50 mg/kg of the test compound RCB-185 or 20 mg/kg chloroquine or 2% methyl cellulose, 0.5% tween-80 as positive and vehicle controls, respectively. Treatment continued once a day for 5 days. At 7 days post-infection, mice were administered 2.5% isofluorane via a nose cone, and once anesthesized, were injected i.p. with 150 mg/kg of D-Luciferin Potassium-salt (Goldbio) dissolved in PBS. Mice were imaged 5-10 min after injection of luciferin with an IVIS 100 (Xenogen, Alameda, Calif.) and data acquisition and analysis were performed with Livinglmage (Xenogen) to quantify the level of infection. To test for significance between vehicle- and RCB-185-treated mice, a t-test was used (VassarStats).

[8] = Plasmodium falciparum, P. falciparum 3D7 (pan-sensitive, lab adapted), asynchronous, 72 h, mean±SEM

In the case of O=CN(O)CCCP(=O)(O)O [FSM, fosmidomycin, reference compound], the IC50 (P. falciparum 3D7; [8]) is reported as 1020 ± 77.8 nM, the IC50 (P. falciparum 3D7; Plasmodium falciparum, parent strain 3D7 (WT) in had1 comparison, FIG. 3, mean±SEM) is reported as 1160 ± 158 nM and the IC50 (P. falciparum 7G8; Plasmodium falciparum) is reported as 1240 ± 189 nM. The IC50 (P. falciparum D6; Plasmodium falciparum) was 1340 ± 247 nM, the IC50 (P. falciparum D10; Plasmodium falciparum) was 2180 ± 353 nM and the IC50 (P. falciparum K1; Plasmodium falciparum) was 837 ± 141 nM. For the same molecule, the IC50 (P. falciparum Battambang; Plasmodium falciparum) was 863 ± 248 nM, the IC50 ([1]; Plasmodium falciparum) was 5350 ± 831 nM and the “rescue of growth by IPP” value (P. falciparum strain 3D7) was “rescues”. The serum half-life ([2]; in vivo) was 1.87 h, the bioavailability ([2]; oral dosing) was 20-40% and the LD50 [3] was > 11,000 mg/kg. The LD50 [4] was > 11,000 mg/kg, the “tolerability in human patients” value (P. falciparum; human, in vivo) was “well-tolerated” and the parasite clearance (P. falciparum; mean±standard deviation) was 44 ± 18 h.

In the case of CC(=O)N(O)C/C=C/P(=O)(OCOC(=O)C(C)(C)C)OCOC(=O)C(C)(C)C [RCB-185], the “fold lower IC50 than FSM” value (P. falciparum 3D7; 3D7, RCB-185 versus FSM) is reported as 50 fold, the IC50 (P. falciparum 3D7; P. falciparum 3D7 (pan-sensitive, lab adapted), asynchronous, 72 h, mean±SEM) is reported as 18.3 ± 1.9 nM and the IC50 (P. falciparum 3D7; parent strain 3D7 (WT) in had1 comparison, FIG. 3, mean±SEM) is reported as 19.9 ± 4.2 nM. The IC50 (P. falciparum 7G8) was 46.7 ± 10.9 nM, the IC50 (P. falciparum D6) was 37.6 ± 10 nM and the IC50 (P. falciparum D10) was 42.5 ± 11.5 nM. For the same molecule, the IC50 (P. falciparum K1) was 31.9 ± 1 nM, the IC50 (P. falciparum Battambang) was 21.1 ± 1.8 nM and the “fold more resistant, had1 versus WT parasites” value ([1]; had1 IC50 versus WT IC50) was 3.8 fold. For the same molecule, the IC50 ([1]; had1 mutant (FSM-resistant), FIG. 3, mean±SEM, read-out: IC50) was 76.5 ± 18.5 nM, the IC50 [5] was 26 ± 6.4 nM and the “rescue of growth by IPP” value (P. falciparum strain 3D7) was “supports growth of P. falciparum treated with RCB-185 at all concentrations tested”. The “reduction in MEcPP levels” value ([6]; 1× the IC50 value of 18.3 nM) was 3.0 fold, the “reduction in MEcPP levels” value ([6]; 7.5× the IC50 value of 18.3 nM) was 5.7 fold and the “DOXP levels versus untreated” value ([6]; 10 h treatment, 1× or 7.5× IC50) was “no significant difference”. For the same molecule, the CDP-ME levels ([6]; 10 h treatment, limit of detection 1.25 ng/mL) was “below the limits of detection”, the MEP levels ([6]; 10 h treatment, limit of detection 12.5 ng/ml) was “below the limits of detection” and the killing of gametocytes [7] was “failure of RCB-185 to kill gametocytes”. For the same molecule, the “adverse effects in mice” value (P. berghei ANKA; 50 mg/kg i.p. once a day) was “no adverse effects were observed” and the “drop in parasite load compared to vehicle” value (P. berghei ANKA; 50 mg/kg i.p. once a day, luciferase signal 7 days post-infection) was greater than 3 log.

C[C@@H]1CC[C@H]2[C@@H](C)C(=O)O[C@@H]3O[C@@]4(C)CC[C@@H]1[C@]32OO4 [artemisinin, reference compound] gave an IC50 (P. falciparum 3D7; [8]) of 10.4 ± 1.6 nM.

In the case of CCN(CC)CCCC(C)Nc1ccnc2cc(Cl)ccc12 (stereo not shown) [chloroquine, reference compound], the “luciferase signal (parasite burden)” value (P. berghei ANKA; 20 mg/kg i.p. once a day, 7 days post-infection) is reported as “below the limit of detection”.
